Measurements published in ChEMBL document CHEMBL5715945 (Cancer Biol Ther, 2010).
Calls of active or inactive are those of the source. No cut-off for these calls is given here.

Assays:
[1] = biological target: Mast/stem cell growth factor receptor Kit (Homo sapiens) (UniProt P10721); experiment: Inhibition of c-kit (unknown origin) at 0.1 uM relative to control; values are per cent of control
[2] = test system: 4T1; experiment: Antitumor activity against mouse 4T1 cells harbouring mCherry red fluorescent protein implanted in BALB/c mouse assessed as increase in apoptosis in tumor at 30 to 100 mg/kg, sc bid measured after 5 days by TUNEL staining based microscopic analysis; type: functional, organism-based; settings: dose 30-100 mg/kg, time 5.0 day
[3] = biological target: Death-associated protein kinase 1 (Homo sapiens) (UniProt P53355); experiment: Inhibition of DAPK1 (unknown origin) at 1 uM relative to control; values are per cent of control
Death-associated protein kinase 1 (Homo sapiens), sequence (P53355 whole entry, looked up): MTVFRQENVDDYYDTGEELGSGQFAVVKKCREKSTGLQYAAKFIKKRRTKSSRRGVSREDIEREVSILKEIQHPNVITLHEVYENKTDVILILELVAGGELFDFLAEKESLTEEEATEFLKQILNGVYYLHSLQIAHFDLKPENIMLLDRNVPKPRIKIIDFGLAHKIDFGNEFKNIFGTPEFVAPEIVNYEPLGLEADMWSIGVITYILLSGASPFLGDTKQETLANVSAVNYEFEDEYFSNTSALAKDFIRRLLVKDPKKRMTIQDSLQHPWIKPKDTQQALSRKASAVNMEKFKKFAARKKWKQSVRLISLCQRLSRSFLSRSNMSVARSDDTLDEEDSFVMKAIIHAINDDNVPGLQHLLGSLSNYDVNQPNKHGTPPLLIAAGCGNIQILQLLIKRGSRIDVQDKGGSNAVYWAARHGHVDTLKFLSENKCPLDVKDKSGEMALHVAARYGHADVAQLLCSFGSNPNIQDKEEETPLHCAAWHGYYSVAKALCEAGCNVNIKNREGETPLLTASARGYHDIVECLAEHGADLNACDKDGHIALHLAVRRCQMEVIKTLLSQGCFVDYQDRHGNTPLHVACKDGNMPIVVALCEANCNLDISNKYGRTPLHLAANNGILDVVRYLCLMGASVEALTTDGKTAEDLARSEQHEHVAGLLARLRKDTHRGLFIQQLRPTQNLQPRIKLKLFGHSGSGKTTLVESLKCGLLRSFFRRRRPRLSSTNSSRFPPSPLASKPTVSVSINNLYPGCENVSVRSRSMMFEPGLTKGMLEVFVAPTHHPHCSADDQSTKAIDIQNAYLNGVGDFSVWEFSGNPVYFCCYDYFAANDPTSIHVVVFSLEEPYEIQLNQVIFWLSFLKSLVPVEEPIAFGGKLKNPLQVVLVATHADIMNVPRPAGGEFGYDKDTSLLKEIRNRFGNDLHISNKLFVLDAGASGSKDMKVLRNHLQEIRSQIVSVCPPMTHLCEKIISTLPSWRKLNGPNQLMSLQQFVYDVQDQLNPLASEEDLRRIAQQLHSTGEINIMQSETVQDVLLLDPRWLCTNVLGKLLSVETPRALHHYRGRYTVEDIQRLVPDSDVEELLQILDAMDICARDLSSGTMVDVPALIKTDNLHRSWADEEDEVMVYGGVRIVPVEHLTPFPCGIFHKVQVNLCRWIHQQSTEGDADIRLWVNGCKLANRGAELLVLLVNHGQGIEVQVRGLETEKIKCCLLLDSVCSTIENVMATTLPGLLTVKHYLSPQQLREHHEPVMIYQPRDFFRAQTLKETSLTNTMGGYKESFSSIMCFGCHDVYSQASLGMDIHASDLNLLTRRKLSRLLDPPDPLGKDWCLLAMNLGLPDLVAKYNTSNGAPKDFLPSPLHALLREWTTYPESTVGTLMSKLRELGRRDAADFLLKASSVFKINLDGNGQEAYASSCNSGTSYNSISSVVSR

[4] = biological target: T1, cAMP-dependent protein kinase (PKA) (Homo sapiens) (UniProt P22694+P17612+P22612); experiment: Inhibition of PKA (unknown origin) at 1 uM relative to control; values are per cent of control
[5] = biological target: Dual specificity mitogen-activated protein kinase kinase 1 (Homo sapiens) (UniProt Q02750); experiment: Inhibition of MEK1 (unknown origin) at 1 uM relative to control; values are per cent of control
Dual specificity mitogen-activated protein kinase kinase 1 (Homo sapiens), sequence (Q02750 whole entry): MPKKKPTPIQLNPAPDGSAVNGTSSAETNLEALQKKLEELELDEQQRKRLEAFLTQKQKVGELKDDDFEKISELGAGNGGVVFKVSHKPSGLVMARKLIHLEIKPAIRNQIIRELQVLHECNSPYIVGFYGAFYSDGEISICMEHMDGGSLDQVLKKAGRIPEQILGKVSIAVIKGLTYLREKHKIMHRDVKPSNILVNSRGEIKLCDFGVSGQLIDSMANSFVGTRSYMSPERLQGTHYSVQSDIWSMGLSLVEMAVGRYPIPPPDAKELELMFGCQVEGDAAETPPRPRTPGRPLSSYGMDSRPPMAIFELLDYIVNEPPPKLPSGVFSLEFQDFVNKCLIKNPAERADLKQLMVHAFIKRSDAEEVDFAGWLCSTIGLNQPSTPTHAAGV

[6] = biological target: T1, cAMP-dependent protein kinase (PKA) (Homo sapiens); experiment: Inhibition of PKA (unknown origin) at 0.1 uM relative to control; values are per cent of control
[7] = test system: 4T1; experiment: Induction of apoptosis in mouse 4T1 suspended cells at 0.1 to 1 uM incubated for 48 hrs by PI staining based flow cytometry analysis; type: functional, cell-based; settings: dose 0.1-1 µM
[8] = biological target: Tyrosine-protein kinase Fyn (Homo sapiens) (UniProt P06241); experiment: Inhibition of Fyn (unknown origin) at 1 uM relative to control; values are per cent of control
[9] = test system: 4T1; experiment: Antitumor activity against mouse 4T1 cells harbouring mCherry red fluorescent protein implanted in BALB/c mouse assessed as fold reduction in tumor weight at 100 mg/kg, sc bid measured after 5 days; type: functional; settings: time 5 day
[10] = biological target: Fibroblast growth factor receptor 1 (Homo sapiens) (UniProt P11362); experiment: Inhibition of FGFR1 (unknown origin) at 1 uM relative to control; values are per cent of control
[11] = biological target: Protein kinase C alpha type (Homo sapiens) (UniProt P17252); experiment: Inhibition of PKCa (unknown origin) at 1 uM relative to control; values are per cent of control
[12] = test system: 4T1; experiment: Induction of apoptosis in mouse 4T1 cells assessed as increase in cell shrinkage at 0.4 to 1 uM measured after 2 days by phase contrast microscopy analysis; type: functional, cell-based; settings: dose 0.4-1 µM, time 2.0 day
[13] = biological target: Platelet-derived growth factor receptor beta (Homo sapiens) (UniProt P09619); experiment: Inhibition of PDGFRb (unknown origin) at 1 uM relative to control; values are per cent of control
[14] = biological target: Focal adhesion kinase 1 (Mus musculus) (UniProt P34152); experiment: Inhibition of FAK phosphorylation at Y397 residue in mouse 4T1 suspended cells at 0.1 uM incubated for 24 hrs by immunoblotting analysis; type: cell-based
Focal adhesion kinase 1 (Mus musculus), sequence (P34152 whole entry, canonical isoform): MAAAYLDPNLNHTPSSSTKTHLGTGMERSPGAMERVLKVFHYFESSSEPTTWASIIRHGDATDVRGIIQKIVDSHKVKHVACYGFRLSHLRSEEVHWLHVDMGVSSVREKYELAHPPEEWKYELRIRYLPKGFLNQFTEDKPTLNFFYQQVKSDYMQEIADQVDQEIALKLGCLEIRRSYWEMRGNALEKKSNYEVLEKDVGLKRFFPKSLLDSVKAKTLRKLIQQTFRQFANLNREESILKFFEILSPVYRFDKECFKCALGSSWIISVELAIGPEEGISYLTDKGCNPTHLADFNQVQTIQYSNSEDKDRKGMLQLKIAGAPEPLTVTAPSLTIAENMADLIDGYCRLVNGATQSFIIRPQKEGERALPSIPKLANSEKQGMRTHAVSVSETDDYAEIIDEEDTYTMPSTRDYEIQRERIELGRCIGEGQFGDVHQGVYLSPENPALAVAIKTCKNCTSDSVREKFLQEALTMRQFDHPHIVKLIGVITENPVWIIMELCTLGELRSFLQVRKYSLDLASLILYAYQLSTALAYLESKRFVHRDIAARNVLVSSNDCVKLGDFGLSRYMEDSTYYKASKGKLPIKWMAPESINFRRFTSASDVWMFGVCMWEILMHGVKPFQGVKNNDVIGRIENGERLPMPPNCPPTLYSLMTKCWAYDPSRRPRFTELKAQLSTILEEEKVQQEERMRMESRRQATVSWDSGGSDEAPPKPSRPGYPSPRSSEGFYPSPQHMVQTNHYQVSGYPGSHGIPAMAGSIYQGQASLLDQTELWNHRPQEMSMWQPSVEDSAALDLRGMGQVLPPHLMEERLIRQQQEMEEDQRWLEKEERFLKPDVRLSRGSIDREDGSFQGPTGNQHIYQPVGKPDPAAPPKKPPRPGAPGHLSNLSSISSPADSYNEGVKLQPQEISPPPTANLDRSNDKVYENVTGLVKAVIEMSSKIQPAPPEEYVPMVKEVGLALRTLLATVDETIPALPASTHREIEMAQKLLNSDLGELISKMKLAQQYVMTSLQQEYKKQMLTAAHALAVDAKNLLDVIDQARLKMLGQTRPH

[15] = biological target: Casein kinase I isoform gamma-1 (Homo sapiens) (UniProt Q9HCP0); experiment: Inhibition of CK1g1 (unknown origin) at 0.1 uM relative to control; values are per cent of control
Casein kinase I isoform gamma-1 (Homo sapiens), sequence (Q9HCP0 whole entry, looked up, canonical isoform): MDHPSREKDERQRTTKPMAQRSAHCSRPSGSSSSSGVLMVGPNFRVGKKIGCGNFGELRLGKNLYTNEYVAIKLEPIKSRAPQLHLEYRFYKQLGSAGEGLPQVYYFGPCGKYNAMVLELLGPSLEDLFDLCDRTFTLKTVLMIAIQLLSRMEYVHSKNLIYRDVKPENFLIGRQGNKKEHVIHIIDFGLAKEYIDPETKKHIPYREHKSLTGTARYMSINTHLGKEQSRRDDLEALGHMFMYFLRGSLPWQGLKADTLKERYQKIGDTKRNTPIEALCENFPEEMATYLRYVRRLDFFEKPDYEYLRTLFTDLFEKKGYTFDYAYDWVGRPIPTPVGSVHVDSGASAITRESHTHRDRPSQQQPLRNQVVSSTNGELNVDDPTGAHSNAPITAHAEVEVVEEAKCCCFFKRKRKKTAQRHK

[16] = biological target: Proto-oncogene tyrosine-protein kinase receptor Ret (Homo sapiens) (UniProt P07949); experiment: Inhibition of Ret (unknown origin) at 0.1 uM relative to control; values are per cent of control
[17] = test system: 4T1; experiment: Antiproliferative activity against mouse 4T1 cells cultured as 3D spheroids assessed as fold reduction in average spheroid size at 0.1 uM measured after 72 hrs by phase contrast microscopic analysis; type: functional
[18] = biological target: Death-associated protein kinase 1 (Homo sapiens) (UniProt P53355); experiment: Inhibition of DAPK1 (unknown origin) at 0.1 uM relative to control; values are per cent of control
[19] = test system: 4T1; experiment: Induction of cell cycle arrest in mouse 4T1 adherent cells assessed as accumulation at S phase at 1 uM measured after 72 hrs by PI staining based flow cytometry analysis (reference value: 12.5%); type: functional
[20] = test system: 4T1; experiment: Induction of cell cycle arrest in mouse 4T1 cells assessed as accumulation at sub-diploid cells at 1 uM measured after 72 hrs by PI staining based flow cytometry analysis; type: functional
[21] = test system: MDA-MB-231; experiment: Upregulation of FAK level in human MDA-MB-231 cells harbouring mCherry red fluorescent protein at 0.1 to 1 uM incubated for 1 hr by immunoblotting analysis; type: functional, cell-based; settings: dose 0.1-1 µM
[22] = biological target: Insulin receptor (Homo sapiens) (UniProt P06213); experiment: Inhibition of IR (unknown origin) at 1 uM relative to control; values are per cent of control
Insulin receptor (Homo sapiens), sequence (P06213 28-758 limits assumed): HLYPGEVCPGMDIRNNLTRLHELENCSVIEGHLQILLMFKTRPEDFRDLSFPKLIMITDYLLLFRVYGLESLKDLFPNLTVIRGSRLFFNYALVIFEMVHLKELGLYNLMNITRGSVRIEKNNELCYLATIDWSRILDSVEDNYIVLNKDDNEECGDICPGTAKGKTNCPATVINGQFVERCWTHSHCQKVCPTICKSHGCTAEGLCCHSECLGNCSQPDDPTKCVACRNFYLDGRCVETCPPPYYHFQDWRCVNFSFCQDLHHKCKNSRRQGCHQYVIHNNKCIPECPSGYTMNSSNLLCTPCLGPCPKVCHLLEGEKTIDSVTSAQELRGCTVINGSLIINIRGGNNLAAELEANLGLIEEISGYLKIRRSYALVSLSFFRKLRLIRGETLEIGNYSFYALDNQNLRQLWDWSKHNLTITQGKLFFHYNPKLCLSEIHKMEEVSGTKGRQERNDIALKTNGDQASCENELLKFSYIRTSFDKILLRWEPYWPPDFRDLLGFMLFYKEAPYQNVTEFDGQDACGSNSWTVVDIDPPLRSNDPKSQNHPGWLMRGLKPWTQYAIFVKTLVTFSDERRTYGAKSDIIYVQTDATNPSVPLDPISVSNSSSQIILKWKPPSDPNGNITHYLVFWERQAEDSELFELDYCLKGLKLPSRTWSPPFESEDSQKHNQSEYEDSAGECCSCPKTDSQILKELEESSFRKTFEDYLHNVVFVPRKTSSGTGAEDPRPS
Insulin receptor (Homo sapiens), sequence (P06213 763-1382 limits assumed): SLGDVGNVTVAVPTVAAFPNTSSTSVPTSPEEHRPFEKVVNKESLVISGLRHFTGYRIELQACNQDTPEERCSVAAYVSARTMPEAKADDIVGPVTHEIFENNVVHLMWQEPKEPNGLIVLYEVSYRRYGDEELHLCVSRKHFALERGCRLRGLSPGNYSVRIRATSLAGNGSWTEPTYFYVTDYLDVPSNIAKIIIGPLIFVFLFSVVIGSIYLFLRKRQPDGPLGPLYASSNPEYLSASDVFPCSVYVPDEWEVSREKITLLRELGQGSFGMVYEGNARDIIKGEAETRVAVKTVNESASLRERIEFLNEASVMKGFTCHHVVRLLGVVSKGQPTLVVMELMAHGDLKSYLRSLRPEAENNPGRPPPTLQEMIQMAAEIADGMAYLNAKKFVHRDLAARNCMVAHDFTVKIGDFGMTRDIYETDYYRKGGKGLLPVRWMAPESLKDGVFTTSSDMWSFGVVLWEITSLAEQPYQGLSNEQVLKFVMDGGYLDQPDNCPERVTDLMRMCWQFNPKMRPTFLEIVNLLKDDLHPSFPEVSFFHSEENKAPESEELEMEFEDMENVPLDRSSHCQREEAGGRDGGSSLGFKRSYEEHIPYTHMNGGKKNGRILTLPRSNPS

[23] = species on record: Homo sapiens; experiment: Inhibition of p70S6K (unknown origin) at 1 uM relative to control; values are per cent of control
[24] = test system: ID8; experiment: Upregulation of FAK level in mouse ID8 cells harbouring mCherry red fluorescent protein at 0.1 to 1 uM incubated for 1 hr by immunoblotting analysis; type: functional, cell-based; settings: dose 0.1-1 µM
[25] = test system: ID8; experiment: Antitumor activity against mouse ID8 cells implanted in C57BL6 mouse assessed as inhibition of FAK phosphorylation at Y397 residue at 0.5 mg/ml administered as solution in 5% sucrose measured after 30 days by immunoblotting analysis; type: functional, cell-based; settings: time 30.0 day
[26] = test system: 4T1; experiment: Induction of apoptosis in mouse 4T1 suspended cells at 0.1 uM incubated for 72 hrs by PI staining based flow cytometry analysis; type: functional, cell-based
[27] = biological target: Aurora kinase A (Homo sapiens) (UniProt O14965); experiment: Inhibition of Aurora-A (unknown origin) at 0.1 uM relative to control; values are per cent of control
Aurora kinase A (Homo sapiens), sequence (O14965 whole entry): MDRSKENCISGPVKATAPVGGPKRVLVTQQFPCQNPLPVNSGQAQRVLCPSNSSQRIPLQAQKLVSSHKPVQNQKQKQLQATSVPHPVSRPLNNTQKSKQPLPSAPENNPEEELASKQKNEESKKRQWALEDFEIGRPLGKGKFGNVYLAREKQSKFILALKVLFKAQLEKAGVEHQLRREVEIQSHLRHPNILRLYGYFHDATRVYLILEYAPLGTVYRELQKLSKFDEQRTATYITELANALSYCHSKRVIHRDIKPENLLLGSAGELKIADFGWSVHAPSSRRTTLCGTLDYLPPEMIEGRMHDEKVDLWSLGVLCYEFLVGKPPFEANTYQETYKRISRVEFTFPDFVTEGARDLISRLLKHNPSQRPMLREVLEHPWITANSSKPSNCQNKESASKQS

[28] = biological target: Serine/threonine-protein kinase Chk1 (Homo sapiens) (UniProt O14757); experiment: Inhibition of CHK1 (unknown origin) at 0.1 uM relative to control; values are per cent of control
[29] = biological target: Insulin receptor (Homo sapiens) (UniProt P06213); experiment: Inhibition of IR (unknown origin) at 0.1 uM relative to control; values are per cent of control
[30] = biological target: Focal adhesion kinase 1 (Mus musculus) (UniProt P34152); experiment: Inhibition of FAK phosphorylation at Y397 residue in mouse 4T1 adherent cells at 0.1 uM incubated for 24 hrs by immunoblotting analysis; type: cell-based
[31] = test system: ID8; experiment: Antitumor activity against mouse ID8 cells implanted in C57BL6 mouse assessed as reduction in number of ascites-associated cells at 0.5 mg/ml administered as solution in 5% sucrose measured after 30 days; type: functional, cell-based; settings: time 30.0 day

## CNC(=O)c1ccccc1Nc1cc(Nc2ccc(N3CCOCC3)cc2OC)ncc1C(F)(F)F [VS-4718]
[1]
  residual activity: 119%
[2]
  Activity: Active
[3]
  residual activity: 97%
[4]
  residual activity: 111%
[5]
  residual activity: 79%
[6]
  residual activity: 114%
[7]
  Activity: inactive
[8]
  residual activity: 78%
[9]
  fold change (FC): 2
[10]
  residual activity: 97%
[11]
  residual activity: 96%
[12]
  Activity: Active
[13]
  residual activity: 105%
[14]
  inhibition: Active
[15]
  residual activity: 111%
[16]
  residual activity: 86%
[17]
  fold change (FC): ~3
[18]
  residual activity: 104%
[19]
  Activity: 10%
[20]
  Activity: Active
[21]
  Activity: Active
[22]
  residual activity: 40%
[23]
  residual activity: 97%
[24]
  Activity: Active
[25]
  Activity: Active
[26]
  Activity: Active
[27]
  residual activity: 69%
[28]
  residual activity: 109%
[29]
  residual activity: 84%
[30]
  inhibition: Active
[31]
  Activity: Active
